Values of other authors, collected in patent US5807857A, “Piperazine, piperidine and tetrahydropyridine derivative of indol-3-alkyl as 5-HT1D-α agonists” (Merck Sharp & Dohme Ltd., priority 1994, dated 1998).

Columns and labels:
[1] = test system: human 5-HT1Dα and 5-HT1Dβ receptor subtypes; settings: cf. WO-A-91/17174, Table 1
[2] = administration to humans at therapeutic doses

- discrimination between the human 5-HT1Dα and 5-HT1Dβ receptor subtypes [1]: barely discriminates
SMILES: CNS(=O)(=O)Cc1ccc2[nH]cc(CCN(C)C)c2c1 [sumatriptan]
- adverse cardiovascular events in humans [2]: certain adverse cardiovascular events
